US10507207B2, “Non-nucleosidic inhibitors of reverse transcriptase as antagonists of cell proliferation and inducers of cell differentiation” (ISTITUTO SUPERIORE DI SANITA, priority 2001, dated 2019)

Tests used:
HL60 cells [1] = test: Cytofluorimetric analysis of cell surface markers; format: cell-based, human; conditions: HL60, RA 1 μM, 4 days
Source text: (§1) The induction of CD11b is associated with granulocytic differentiation, CD14 is considered a monocytic specific antigen and CD15 is a myelomonocytic antigen. Simultaneous induction of CD14 and CD11b relates to monocytic differentiation. […] In nevirapine-treated NB4 and HL60 cells, a strong induction of expression of CD15, and, to a lesser degree, CD11b and CD14 markers was detected.

NB4 cells [2] = test: Cytofluorimetric analysis of cell surface markers; format: cell-based, human; conditions: NB4, RA 1 μM, 4 days
Source text: as §1

NB4 cells [3] = test: Growth, viable cell count; format: cell-based, human; conditions: NB4, RA 1 μM, 4 days
HL60 cells [4] = test: Growth, viable cell count; format: cell-based, human; conditions: HL60, RA 1 μM, 4 days
NB4 cells [5] = test: NBT dye reduction assay; format: cell-based, human; conditions: NB4, RA 1 μM, 4 days
HL60 cells [6] = test: NBT dye reduction assay; format: cell-based, human; conditions: HL60, RA 1 μM, 4 days
early mouse embryos = test: Early mouse embryo cultures from in vitro fertilization (IVF) assays; conditions: added to cultures of IVF embryos; preliminary studies
F9 teratocarcinoma cells = test: Cell proliferation by cell counting; format: cell-based, murine; conditions: efavirenz 10 and 20 μM, dose-dependent, vs non-exposed cells
Protocol: (§2) NIH/3T3 embryo fibroblasts and F9 teratocarcinoma cells were cultured in DMEM containing 10-20% fetal serum and two concentrations of efavirenz, i.e. 10 and 20 μM, diluted from a stock solution (10 mM) in 100% DMSO. Cells were plated at a density of 2-5×10^4 in 35 mm Petri dishes and exposed to efavirenz 5-6 hours later. Samples were withdrawn at specific times and cells were counted in efavirenz-exposed compared to parallel non-exposed cell cultures.

[7] = system: NIH/3T3 embryo fibroblasts; test: Cell proliferation by cell counting; format: cell-based, murine; conditions: efavirenz 10 and 20 μM, dose-dependent, vs non-exposed cells
Protocol: as §2

[8] = system: Saos-2 osteosarcoma cells; test: Cell proliferation by cell counting; format: cell-based, human; conditions: 20 μM efavirenz
Protocol: Samples were withdrawn at specific times and cells were counted in nevirapine-exposed and control (DMSO-exposed) cultures. […] Saos-2 osteosarcoma cells were the most slowly responsive type, and only after 5 days of exposure did the growth rate begin to decrease compared to control cultures.
(§3) The effect of efavirenz was further tested in human HeLa adenocarcinoma and Saos-2 osteosarcoma cells. Both cell lines were cultured in the conditions described above (Example 6). To establish if prolonged exposure to the drug improved the effectiveness of growth inhibition, both cell lines were exposed to efavirenz in two subsequent cycles: during the 1st cycle cells were continuously exposed to 20 μM efavirenz for 5 days; cells were then diluted, reseeded again and the 2nd cycle exposure was initiated the following day with fresh drug. […] The inhibitory effect was time-dependent, since in both HeLa and Saos-2 cultures, the 1st cycle of exposure (5 days) yielded a 1.6- and 1.5-fold reduction, respectively, whereas a 5- and 4-fold reduction was obtained in the 2nd cycle (carried out until day 20 from the onset of exposure).

[9] = system: HeLa adenocarcinoma cells; test: Cell proliferation by cell counting; format: cell-based, human; conditions: 20 μM efavirenz
Protocol: as §3

Morris 3924A hepatoma = test: Morris 3924A rat hepatoma in vivo; conditions: efavirenz 1 mg/rat/day from day of inoculation; two treated rats; controls died at 27th day
Protocol: Rat strain: ACI/T inbred (about 180 gr)
Tumor: Morris 3924A hepatoma is a fast-growing tumor which develops in inbred ACI/T animals. Three weeks after inoculation the tumor size is about 10 cm^3.
Preparation of tumor cells: hepatoma tumor cells are prepared from the animal about two weeks after inoculation. The tumor is surgically removed from the animal, separated from connective and necrotic tissues and minced in small pieces. Tumor fragments are then suspended in sterile physiological solution and inoculated in the internal site of one thigh using a 20 ml-syringe with a large size needle. Routinely 0.5 ml of cell suspension are injected. The success rate of tumor implantation is nearly 99%.
On the eleventh day, hepatoma cells were inoculated subcutaneously in pre-treated and in three non-treated control rats.
Procedures and Results: Morris hepatoma cells were inoculated in 4 rats ([…]). The same day, treatment with efavirenz was initiated in two of them by injecting 1 mg/rat/day.

[10] = 2nd cycle (until day 20 from onset of exposure)

Compound | CD11b mean fluorescence intensity (HL60 cells [1]) [AU] | CD14 mean fluorescence intensity (HL60 cells [1]) [AU] | CD15 mean fluorescence intensity (HL60 cells [1]) [AU] | CD11b mean fluorescence intensity (NB4 cells [2]) [AU] | CD14 mean fluorescence intensity (NB4 cells [2]) [AU] | CD15 mean fluorescence intensity (NB4 cells [2]) [AU] | Viable cells N^0 × 10^5 (NB4 cells [3]) | Viable cells N^0 × 10^5 (HL60 cells [4]) | NBT+ (%) (NB4 cells [5]) | NBT+ (%) (HL60 cells [6]) | development of early mouse embryos (early mouse embryos) | rate of proliferation (F9 teratocarcinoma cells) | rate of proliferation [7] | reduction in the rate of cell growth ([8]; 1st cycle of exposure (5 days)) [fold] | reduction in the rate of cell growth [8, 10] [fold] | reduction in the rate of cell growth ([9]; 1st cycle of exposure (5 days)) [fold] | reduction in the rate of cell growth [9, 10] [fold] | tumor development in treated rats (Morris 3924A hepatoma)
CC1=C(/C=C/C(C)=C/C=C/C(C)=C/C(=O)O)C(C)(C)CCC1 [RA, retinoic acid] | 15.3 | 23.7 | 609.7 | 53.7 | 19.1 | 421.7 | 1.4 ± 0.1 × 10^5 | 6.5 ± 0.9 × 10^5 | 80.6 ± 4.5 | 31.2 ± 1.4 | – | – | – | – | – | – | – | –
O=C1Nc2ccc(Cl)cc2[C@@](C#CC2CC2)(C(F)(F)F)O1 [efavirenz, (−)-6-chloro-4-cyclopropylethynyl-4-trifluoromethyl-1,4,-dihydro-2H-3,1-benzoxazine-one] | – | – | – | – | – | – | – | – | – | – | early and effective developmental arrest | decreases the rate of proliferation | decreases the rate of proliferation | 1.5 | 4 | 1.6 | 5 | only one of two treated animals developed a tumor of markedly smaller size, whereas the other remained totally healthy
